# Test results: ChEMBL document CHEMBL1201861, “Genomics of Drug Sensitity in Cancer screening data, Wellcome Trust Sanger Institute”
# Experiments:
# MOLT-4 = assay: cells; assay type: functional, cell-based; conditions: Homo sapiens;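 note: growth inhibition of MOLT-4 cells, determined with a cell viability readout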
# Description: SANGER: Inhibition of human MOLT-4 cell growth in a cell viability assay.
# NB69 = assay: cells; assay type: functional, cell-based; conditions: Homo sapiens;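 note: growth inhibition of NB69 cells, determined by a cell viability assay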
# Description: SANGER: Inhibition of human NB69 cell growth in a cell viability assay.
# LS-123 = assay: cells; assay type: functional, cell-based; conditions: Homo sapiens
# Description: SANGER: Inhibition of human LS-123 cell growth in a cell viability assay.
# GT3TKB = assay: cells; assay type: functional, cell-based; conditions: Homo sapiens;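 note: growth inhibition of the cell line, read out with a cell viability assay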
# Description: SANGER: Inhibition of human GT3TKB cell growth in a cell viability assay.
# KM12 = assay: cells; assay type: functional, cell-based; conditions: Homo sapiens;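 note: KM12 cell growth inhibition, read out with a cell viability assay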
# Description: SANGER: Inhibition of human KM12 cell growth in a cell viability assay.
# GI-ME-N = assay: cells; assay type: functional, cell-based; conditions: Homo sapiens;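 note: growth inhibition of human GI-ME-N cells, read out with a cell viability assay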
# Description: SANGER: Inhibition of human GI-ME-N cell growth in a cell viability assay.
# COLO-829 = assay: cells; assay type: functional, cell-based; conditions: Homo sapiens
# Description: SANGER: Inhibition of human COLO-829 cell growth in a cell viability assay.
# Becker = assay: cells; assay type: functional, cell-based; conditions: Homo sapiens;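 note: growth inhibition of Becker cells, read out with a cell viability assay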
# Description: SANGER: Inhibition of human Becker cell growth in a cell viability assay.
# BB65-RCC = assay: cells; assay type: functional, cell-based; conditions: Homo sapiens;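 note: growth inhibition of the cell line, measured with a cell viability assay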
# Description: SANGER: Inhibition of human BB65-RCC cell growth in a cell viability assay.
# MZ2-MEL = assay: cells; assay type: functional, cell-based; conditions: Homo sapiens;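 note: growth inhibition of MZ2-MEL cells read out with a cell viability assay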
# Description: SANGER: Inhibition of human MZ2-MEL cell growth in a cell viability assay.
# NKM-1 = assay: cells; assay type: functional, cell-based; conditions: Homo sapiens;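 note: growth inhibition of NKM-1 cells, read out with a cell viability assay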
# Description: SANGER: Inhibition of human NKM-1 cell growth in a cell viability assay.
# A4-Fuk = assay: cells; assay type: functional, cell-based; conditions: Homo sapiens;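 note: growth inhibition of A4-Fuk cells, read out by a cell viability assay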
# Description: SANGER: Inhibition of human A4-Fuk cell growth in a cell viability assay.
# NCI-H526 = assay: cells; assay type: functional, cell-based; conditions: Homo sapiens;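 note: growth inhibition of the human NCI-H526 cell line, measured by a cell viability assay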
# Description: SANGER: Inhibition of human NCI-H526 cell growth in a cell viability assay.
# LB2241-RCC = assay: cells; assay type: functional, cell-based; conditions: Homo sapiens;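 note: cell viability assay measuring how strongly the cultured human renal carcinoma line is prevented from growing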
# Description: SANGER: Inhibition of human LB2241-RCC cell growth in a cell viability assay.
# NCI-H1581 = assay: cells; assay type: functional, cell-based; conditions: Homo sapiens;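 note: cell growth inhibition read out by a viability assay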
# Description: SANGER: Inhibition of human NCI-H1581 cell growth in a cell viability assay.
# TGBC24TKB = assay: cells; assay type: functional, cell-based; conditions: Homo sapiens;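 note: growth inhibition of human TGBC24TKB cells, read out with a cell viability assay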
# Description: SANGER: Inhibition of human TGBC24TKB cell growth in a cell viability assay.
# SW982 = assay: cells; assay type: functional, cell-based; conditions: Homo sapiens;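 note: growth inhibition of SW982 cells, read out with a cell viability assay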
# Description: SANGER: Inhibition of human SW982 cell growth in a cell viability assay.
# SK-LMS-1 = assay: cells; assay type: functional, cell-based; conditions: Homo sapiens;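 note: growth inhibition of human SK-LMS-1 cells, read out with a cell viability assay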
# Description: SANGER: Inhibition of human SK-LMS-1 cell growth in a cell viability assay.
# U-266 = assay: cells; assay type: functional, cell-based; conditions: Homo sapiens
# Description: SANGER: Inhibition of human U-266 cell growth in a cell viability assay.
# JAR = assay: cells; assay type: functional, cell-based; conditions: Homo sapiens;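 note: growth inhibition of human JAR cells determined with a cell viability assay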
# Description: SANGER: Inhibition of human JAR cell growth in a cell viability assay.
# IM-9 = assay: SANGER: Inhibition of human IM-9 cell growth in a cell viability assay.; assay type: functional, cell-based
# BV-173 = assay: cells; assay type: functional, cell-based; conditions: Homo sapiens
# Description: SANGER: Inhibition of human BV-173 cell growth in a cell viability assay.
# RS4-11 = assay: cells; assay type: functional, cell-based; conditions: Homo sapiens;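 note: growth inhibition of RS4-11 cells, read out by a cell viability assay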
# Description: SANGER: Inhibition of human RS4-11 cell growth in a cell viability assay.
# MEG-01 = assay: cells; assay type: functional, cell-based; conditions: Homo sapiens;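 note: growth inhibition of MEG-01 cells, read out by a cell viability assay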
# Description: SANGER: Inhibition of human MEG-01 cell growth in a cell viability assay.
# NCI-H1395 = assay: cells; assay type: functional, cell-based; conditions: Homo sapiens;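 note: cell viability assay read-out quantifying reduced proliferation of human NCI-H1395 cells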
# Description: SANGER: Inhibition of human NCI-H1395 cell growth in a cell viability assay.
# ES4 = assay: cells; assay type: functional, cell-based; conditions: Homo sapiens;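 note: growth inhibition of human ES4 cells, read out by a cell viability assay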
# Description: SANGER: Inhibition of human ES4 cell growth in a cell viability assay.
# MOLT-16 = assay: cells; assay type: functional, cell-based; conditions: Homo sapiens;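 note: growth inhibition of human MOLT-16 cells, read out with a cell viability assay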
# Description: SANGER: Inhibition of human MOLT-16 cell growth in a cell viability assay.
# GB-1 = assay: cells; assay type: functional, cell-based; conditions: Homo sapiens;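 note: growth of GB-1 cells judged by a viability assay, IC50 marks the concentration inhibiting growth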
# Description: SANGER: Inhibition of human GB-1 cell growth in a cell viability assay.
# LU-165 = assay: cells; assay type: functional, cell-based; conditions: Homo sapiens
# Description: SANGER: Inhibition of human LU-165 cell growth in a cell viability assay.
# LB831-BLC = assay: cells; assay type: functional, cell-based; conditions: Homo sapiens;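 note: growth inhibition of LB831-BLC cells, read out with a cell viability assay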
# Description: SANGER: Inhibition of human LB831-BLC cell growth in a cell viability assay.
# HH = assay: cells; assay type: functional, cell-based; conditions: Homo sapiens
# Description: SANGER: Inhibition of human HH cell growth in a cell viability assay.
# KY821 = assay: cells; assay type: functional, cell-based; conditions: Homo sapiens;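 note: growth inhibition of human KY821 cells, read out by a cell viability assay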
# Description: SANGER: Inhibition of human KY821 cell growth in a cell viability assay.
# NB13 = assay: cells; assay type: functional, cell-based; conditions: Homo sapiens;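 note: cell viability readout measuring growth inhibition of human NB13 cells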
# Description: SANGER: Inhibition of human NB13 cell growth in a cell viability assay.
# P30-OHK = assay: cells; assay type: functional, cell-based; conditions: Homo sapiens;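 note: growth inhibition of the P30-OHK cell line, read out with a cell viability assay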
# Description: SANGER: Inhibition of human P30-OHK cell growth in a cell viability assay.
# L-363 = assay: cells; assay type: functional, cell-based; conditions: Homo sapiens
# Description: SANGER: Inhibition of human L-363 cell growth in a cell viability assay.
# IST-SL1 = assay: cells; assay type: functional, cell-based; conditions: Homo sapiens;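 note: growth inhibition of human IST-SL1 cells, read out with a cell viability assay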
# Description: SANGER: Inhibition of human IST-SL1 cell growth in a cell viability assay.
# DJM-1 = assay: cells; assay type: functional, cell-based; conditions: Homo sapiens;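 note: growth inhibition of human DJM-1 cells, read out by a cell viability assay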
# Description: SANGER: Inhibition of human DJM-1 cell growth in a cell viability assay.
# RXF 393 = assay: cells; assay type: functional, cell-based; conditions: Homo sapiens;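 note: growth inhibition of human RXF 393 cells, read out with a cell viability assay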
# Description: SANGER: Inhibition of human RXF393 cell growth in a cell viability assay.
# ALL-PO = assay: cells; assay type: functional, cell-based; conditions: Homo sapiens;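 note: growth inhibition of ALL-PO cells, read out by a cell viability assay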
# Description: SANGER: Inhibition of human ALL-PO cell growth in a cell viability assay.
# CW-2 = assay: cells; assay type: functional, cell-based; conditions: Homo sapiens;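 note: growth inhibition of CW-2 cells, read out by a cell viability assay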
# Description: SANGER: Inhibition of human CW-2 cell growth in a cell viability assay.
# MV4-11 = assay: cells; assay type: functional, cell-based, MV-4-11; conditions: Homo sapiens;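 note: cell viability readout measuring growth inhibition of human MV-4-11 cells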
# Description: SANGER: Inhibition of human MV-4-11 cell growth in a cell viability assay.
# ACN = assay: cells; assay type: functional, cell-based; conditions: Homo sapiens;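 note: growth inhibition of the human ACN cell line, read out via cell viability testing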
# Description: SANGER: Inhibition of human ACN cell growth in a cell viability assay.
# EW-18 = assay: cells; assay type: functional, cell-based; conditions: Homo sapiens;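 note: growth inhibition of EW-18 cells, read out by a cell viability assay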
# Description: SANGER: Inhibition of human EW-18 cell growth in a cell viability assay.
# NCI-H720 = assay: cells; assay type: functional, cell-based; conditions: Homo sapiens;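 note: growth inhibition of human NCI-H720 cells determined by a cell viability assay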
# Description: SANGER: Inhibition of human NCI-H720 cell growth in a cell viability assay.
# MFH-ino = assay: cells; assay type: functional, cell-based; conditions: Homo sapiens;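 note: growth inhibition of human MFH-ino cells, read out by a cell viability assay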
# Description: SANGER: Inhibition of human MFH-ino cell growth in a cell viability assay.
# HL-60 = assay: cells; assay type: functional, cell-based; conditions: Homo sapiens;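 note: growth inhibition of human HL-60 cells, read out with a cell viability assay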
# Description: SANGER: Inhibition of human HL-60 cell growth in a cell viability assay.
# EM-2 = assay: cells; assay type: functional, cell-based; conditions: Homo sapiens;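 note: growth inhibition of EM-2 cells, read out with a cell viability assay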
# Description: SANGER: Inhibition of human EM-2 cell growth in a cell viability assay.
# LU-134-A = assay: cells; assay type: functional, cell-based; conditions: Homo sapiens
# Description: SANGER: Inhibition of human LU-134-A cell growth in a cell viability assay.
# DEL = assay: cells; assay type: functional, cell-based; conditions: Homo sapiens;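 note: growth inhibition of the human DEL cell line, read out with a cell viability assay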
# Description: SANGER: Inhibition of human DEL cell growth in a cell viability assay.
# NCI-H2126 = assay: cells; assay type: functional, cell-based; conditions: Homo sapiens;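 note: growth inhibition of the cancer cell line, determined with a cell viability readout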
# Description: SANGER: Inhibition of human NCI-H2126 cell growth in a cell viability assay.
# VA-ES-BJ = assay: cells; assay type: functional, cell-based; conditions: Homo sapiens;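 note: growth inhibition of the VA-ES-BJ cell line, read out by a cell viability assay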
# Description: SANGER: Inhibition of human VA-ES-BJ cell growth in a cell viability assay.
# BB49-HNC = assay: cells; assay type: functional, cell-based; conditions: Homo sapiens;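 note: cell viability assay read-out, reported as inhibition of BB49-HNC cell growth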
# Description: SANGER: Inhibition of human BB49-HNC cell growth in a cell viability assay.
# COLO-320-HSR = assay: cells; assay type: functional, cell-based; conditions: Homo sapiens;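 note: growth inhibition of COLO-320-HSR cells, determined with a cell viability assay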
# Description: SANGER: Inhibition of human COLO-320-HSR cell growth in a cell viability assay.
# LS-411N = assay: cells; assay type: functional, cell-based; conditions: Homo sapiens
# CP66-MEL = assay: cells; assay type: functional, cell-based; conditions: Homo sapiens;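 note: growth inhibition of CP66-MEL cells determined in a cell viability assay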
# Description: SANGER: Inhibition of human CP66-MEL cell growth in a cell viability assay.
# NCI-H1299 = assay: cells; assay type: functional, cell-based; conditions: Homo sapiens;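 note: growth inhibition of human NCI-H1299 cells, read out by a cell viability assay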
# Description: SANGER: Inhibition of human NCI-H1299 cell growth in a cell viability assay.
smiles,measurement,setting,value
Cc1n[nH]c2ccc(-c3cncc(OC[C@@H](N)Cc4c[nH]c5ccccc45)c3)cc12 [A-443654],IC50,MOLT-4,131 nM
same,IC50,NB69,227 nM
same,IC50,LS-123,337 nM
same,IC50,GT3TKB,> 1020 nM
same,IC50,KM12,141 nM
same,IC50,GI-ME-N,278 nM
same,IC50,COLO-829,> 1020 nM
same,IC50,Becker,303 nM
same,IC50,BB65-RCC,597 nM
same,IC50,MZ2-MEL,> 1020 nM
same,IC50,NKM-1,> 1020 nM
same,IC50,A4-Fuk,103 nM
same,IC50,NCI-H526,> 1020 nM
same,IC50,LB2241-RCC,> 1020 nM
same,IC50,NCI-H1581,606 nM
same,IC50,TGBC24TKB,810 nM
same,IC50,SW982,166 nM
same,IC50,SK-LMS-1,276 nM
same,IC50,U-266,> 1020 nM
same,IC50,JAR,156 nM
same,IC50,IM-9,> 1020 nM
same,IC50,BV-173,269 nM
same,IC50,RS4-11,168 nM
same,IC50,MEG-01,814 nM
same,IC50,NCI-H1395,> 1020 nM
same,IC50,ES4,37.7 nM
same,IC50,MOLT-16,83.7 nM
same,IC50,GB-1,199 nM
same,IC50,LU-165,620 nM
same,IC50,LB831-BLC,194 nM
same,IC50,HH,223 nM
same,IC50,KY821,246 nM
same,IC50,NB13,332 nM
same,IC50,P30-OHK,> 1020 nM
same,IC50,L-363,153 nM
same,IC50,IST-SL1,434 nM
same,IC50,DJM-1,331 nM
same,IC50,RXF 393,657 nM
same,IC50,ALL-PO,797 nM
same,IC50,CW-2,> 1020 nM
same,IC50,MV4-11,57.7 nM
same,IC50,ACN,909 nM
same,IC50,EW-18,> 1020 nM
same,IC50,NCI-H720,154 nM
same,IC50,MFH-ino,236 nM
same,IC50,HL-60,500 nM
same,IC50,EM-2,583 nM
same,IC50,LU-134-A,363 nM
same,IC50,DEL,231 nM
same,IC50,NCI-H2126,309 nM
same,IC50,VA-ES-BJ,129 nM
same,IC50,BB49-HNC,> 1020 nM
same,IC50,COLO-320-HSR,937 nM
same,IC50,LS-411N,87.5 nM
same,IC50,CP66-MEL,459 nM
Cc1nc(Nc2ncc(C(=O)Nc3c(C)cccc3Cl)s2)cc(N2CCN(CCO)CC2)n1 [DASATINIB],IC50,MOLT-4,> 1280 nM
same,IC50,NB69,144 nM
same,IC50,LS-123,141 nM
same,IC50,GT3TKB,> 1280 nM
same,IC50,KM12,> 1280 nM
same,IC50,GI-ME-N,61.2 nM
same,IC50,COLO-829,122 nM
same,IC50,Becker,30 nM
same,IC50,BB65-RCC,82.3 nM
same,IC50,MZ2-MEL,285 nM
same,IC50,NKM-1,> 1280 nM
same,IC50,A4-Fuk,> 1280 nM
same,IC50,NCI-H526,> 1280 nM
same,IC50,LB2241-RCC,> 1280 nM
same,IC50,NCI-H1581,> 1280 nM
same,IC50,TGBC24TKB,47.6 nM
same,IC50,SW982,11.1 nM
same,IC50,SK-LMS-1,> 1280 nM
same,IC50,U-266,> 1280 nM
same,IC50,JAR,> 1280 nM
same,IC50,IM-9,> 1280 nM
same,IC50,BV-173,< 5 nM
same,IC50,RS4-11,> 1280 nM
same,IC50,MEG-01,< 5 nM
same,IC50,NCI-H1395,> 1280 nM
same,IC50,ES4,1050 nM
same,IC50,MOLT-16,> 1280 nM
same,IC50,GB-1,21.6 nM
same,IC50,LU-165,> 1280 nM
same,IC50,LB831-BLC,46.1 nM
same,IC50,HH,> 1280 nM
same,IC50,KY821,> 1280 nM
same,IC50,NB13,> 1280 nM
same,IC50,P30-OHK,> 1280 nM
same,IC50,L-363,> 1280 nM
same,IC50,IST-SL1,> 1280 nM
same,IC50,DJM-1,> 1280 nM
same,IC50,RXF 393,23.6 nM
same,IC50,ALL-PO,> 1280 nM
same,IC50,CW-2,> 1280 nM
same,IC50,MV4-11,> 1280 nM
same,IC50,ACN,> 1280 nM
same,IC50,EW-18,> 1280 nM
same,IC50,NCI-H720,> 1280 nM
same,IC50,MFH-ino,47.2 nM
same,IC50,HL-60,> 1280 nM
same,IC50,EM-2,< 5 nM
same,IC50,LU-134-A,> 1280 nM
same,IC50,DEL,> 1280 nM
same,IC50,NCI-H2126,> 1280 nM
same,IC50,VA-ES-BJ,39 nM
same,IC50,BB49-HNC,386 nM
same,IC50,COLO-320-HSR,> 1280 nM
same,IC50,LS-411N,> 1280 nM
same,IC50,CP66-MEL,195 nM
CCn1c(-c2nonc2N)nc2cnc(Oc3cccc(NC(=O)c4ccc(OCCN5CCOCC5)cc4)c3)cc21 [GSK-269962A],IC50,MOLT-4,> 2500 nM
same,IC50,NB69,> 2500 nM
same,IC50,LS-123,> 2500 nM
same,IC50,GT3TKB,1600 nM
same,IC50,KM12,> 2500 nM
same,IC50,GI-ME-N,49.5 nM
same,IC50,COLO-829,> 2500 nM
same,IC50,Becker,> 2500 nM
same,IC50,BB65-RCC,> 2500 nM
same,IC50,MZ2-MEL,> 2500 nM
same,IC50,NKM-1,> 2500 nM
same,IC50,A4-Fuk,> 2500 nM
same,IC50,NCI-H526,> 2500 nM
same,IC50,NCI-H1299,> 2500 nM
same,IC50,LB2241-RCC,> 2500 nM
same,IC50,NCI-H1581,> 2500 nM
same,IC50,SK-LMS-1,> 2500 nM
same,IC50,U-266,> 2500 nM
same,IC50,JAR,> 2500 nM
same,IC50,IM-9,> 2500 nM
same,IC50,BV-173,> 2500 nM
same,IC50,RS4-11,> 2500 nM
same,IC50,MEG-01,> 2500 nM
same,IC50,NCI-H1395,> 2500 nM
same,IC50,ES4,> 2500 nM
same,IC50,MOLT-16,> 2500 nM
same,IC50,GB-1,> 2500 nM
same,IC50,LU-165,> 2500 nM
same,IC50,LB831-BLC,> 2500 nM
same,IC50,HH,> 2500 nM
same,IC50,KY821,> 2500 nM
same,IC50,NB13,2310 nM
same,IC50,P30-OHK,> 2500 nM
same,IC50,L-363,> 2500 nM
same,IC50,IST-SL1,2170 nM
same,IC50,DJM-1,> 2500 nM
same,IC50,RXF 393,393 nM
same,IC50,ALL-PO,> 2500 nM
same,IC50,CW-2,> 2500 nM
same,IC50,MV4-11,139 nM
same,IC50,ACN,> 2500 nM
same,IC50,EW-18,> 2500 nM
same,IC50,NCI-H720,2450 nM
same,IC50,MFH-ino,644 nM
same,IC50,HL-60,> 2500 nM
same,IC50,EM-2,2460 nM
same,IC50,LU-134-A,> 2500 nM
same,IC50,DEL,> 2500 nM
same,IC50,NCI-H2126,> 2500 nM
same,IC50,VA-ES-BJ,> 2500 nM
same,IC50,BB49-HNC,7.89 nM
same,IC50,COLO-320-HSR,> 2500 nM
same,IC50,LS-411N,> 2500 nM
same,IC50,CP66-MEL,> 2500 nM
